According to patent US11767520B2, “Compositions and methods for treating lung inflammation” (aTyr Pharma, Inc., priority 2017, dated 2023):

Legend:
[1] = Body weight, BLM mouse model (Example 1); assay type: in vivo, mouse (male C57Bl/6J); details: BLM-induced mice; daily PO from Day 0: dexamethasone 0.25 mg/kg, Nintedanib 60 mg/kg
Protocol: (§1) Lung inflammation and fibrosis were induced in male C57Bl/6J mice by oropharyngeal administration of BLM. After the habituation phase mice were randomized based on body weight over the different groups. Under isoflurane anesthesia, 50 μl PBS or BLM was dripped onto the vocal cords facilitating aspiration. Mice were sacrificed at day 21 using a terminal bleed under isoflurane anesthesia.
(§2) Daily oral treatments commenced on Day 0, while daily IV treatments commenced on Day 8. Dosing was planned to continue until the day of termination (Day 21), however, due to high mortality in IV treated groups (see results), IV dosing was skipped on Day 19 and Day 20. […] Subsequently, the mice received 8% D20 (Kinemed, Emeryville) drinking water until sacrifice to maintain labeling of newly formed collagen. Body weight was monitored three times a week.

[2] = system: bleomycin-induced lung fibrosis; experiment: Survival, BLM-induced lung fibrosis mouse model (Example 1, Table E2); assay type: in vivo, mouse (male C57Bl/6J); details: for Survival (number of animals surviving to study day): Ninte. 60 mg/kg PO, BLM mice, 12 at start
Protocol: as §1, §2
The study commenced with 7 animals in the non-diseased control group and 12 animals in the BLM-induced groups. Survival is show in Table E2 below.

[3] = Body weight, BLM rat model (Example 2); assay type: in vivo, rat (male Sprague Dawley); details: BLM-induced rats; Nintedanib 60 mg/kg PO daily; Test Article = HRS^FC1 0.1-3 mg/kg IV weekly
Protocol: PBS or BLM was administered under isoflurane anesthesia.
(§3) In-life, body weights were measured and clinical observations were conducted daily. On Day 8 and Day 15, animals were removed from their home cages and placed individually into whole body plethysmography chambers. After a 20-minute acclimatization phase, respiratory parameters were recorded for 10 minutes.

[4] = system: bleomycin-induced lung inflammation; experiment: Histological inflammatory cell infiltrate and type II pneumocyte hyperplasia scores, BLM rat model (Example 2); assay type: in vivo, rat (male Sprague Dawley); details: BLM-induced rats, Day 22; Nintedanib PO; Test Article = HRS^FC1 1 mg/kg on Days 2, 9 and 16; FIG. 5
Protocol: The five lung lobes were collected and weighed. The right lung lobes were inflated and fixed in 10% neutral buffered formalin and embedded in paraffin for histological analysis. An approximately 50 mg piece of the left lung lobe was snap frozen and stored at −80° C. for potential RNA analysis. The remainder of the lobe was also snap frozen until analyzed for collagen content.
(§4) Sections for histology were stained using picrosirius red and were scored in a blinded fashion (1 score for each of the 4 lobes) by a veterinary pathologist using a modified Ashcroft score (Hubner et al., 2008). Hydroxyproline content was determined in the left lung lobe using a mass spectrometry method.
(§5) Slides were read by a veterinary pathologist and each of the 4 lobes evaluated was assigned 4 scores [Ashcroft for fibrosis (scores range from 0 to 8), perivascular/peribronchiolar inflammatory cell infiltrate (scores range from 0 to 5), interstitial/alveolar inflammatory cell infiltrate (scores range from 0 to 5), type II pneumocyte hyperplasia (scores range from 0 to 5)].

[5] = Body weight, BLM rat model, combination study (Example 3); assay type: in vivo, rat (male Sprague Dawley); details: BLM-induced rats; Nintedanib, Pirfenidone or Test Article (HRS^FC1 3 mg/kg IV weekly), alone or in combination, from Day 9
Protocol: (§6) PBS or BLM was administered under isoflurane anesthesia. Excess rats were induced with BLM and used to replace any animals with excessive body weight loss.
(§7) All treatments commenced on Day 9.
as §3, with “Days 8, 15” for “Day 8”, “21,” for “Day 15,”, “minutes. Pre-study and on Days 10 and Day 17, whole blood was obtained from the tail vein and processed to serum for measurement of HRS^FC1.” for “minutes.”

[6] = system: bleomycin-induced lung fibrosis; experiment: Histological fibrosis (modified Ashcroft) score, BLM rat model, combination study (Example 3); assay type: in vivo, rat (male Sprague Dawley); details: BLM-induced rats; alone or in combination, vs PO plus IV vehicles; data not shown
Protocol: The five lung lobes were collected and weighed. On Day 17, the right accessory lobe was retained and desiccated to obtain dry weight. The remaining right lung lobes were inflated and fixed in 10% neutral buffered formalin and embedded in paraffin for histological analysis. An approximately 50 mg piece of the left lung lobe was snap frozen and stored at −80° C. for potential RNA analysis. The remainder of the lobe was also snap frozen until analyzed for collagen content.
as §4, with “3-4” for “4”
as §5, with “the 3” for “the 4”, “4 score types” for “4 scores”

[7] = system: bleomycin-induced respiratory impairment; experiment: Respiratory measurements by whole body plethysmography, BLM rat model, combination study (Example 3, Table E6); assay type: in vivo, rat (male Sprague Dawley); parameters: Tidal Volume: unit not given here; details: for Expiratory Time / Inspiratory Time / Peak Expiratory Flow / Peak Inspiratory Flow / Tidal Volume / Respiratory Rate / Respiratory Minute Volume: mean; for Respiratory Rate: in breaths/min (unit assumed); for Respiratory Minute Volume: in mL/min (unit assumed)
Protocol: as §6, §7
as §3, with “Days 8, 15” for “Day 8”, “21,” for “Day 15,”, “minutes. Pre-study and on Days 10 and Day 17, whole blood was obtained from the tail vein and processed to serum for measurement of HRS^FC1.” for “minutes.”

[8] = Day 8 (prior to any treatments), Ninte. PO + Vehicle IV group

SMILES: COC(=O)c1ccc2c(c1)NC(=O)/C2=C(\Nc1ccc(N(C)C(=O)CN2CCN(C)CC2)cc1)c1ccccc1 [Nintedanib, nintedanib]
- Body weight, of initial body weights [1]: around 90%
- Survival rate ([2]; BLM-induced mice to Day 21, daily PO from Day 0: dexamethasone 0.25 mg/kg, Nintedanib 60 mg/kg): 92%
- Survival (number of animals surviving to study day) ([2]; Day 11): 12
- Survival (number of animals surviving to study day) ([2]; Day 12): 12
- Survival (number of animals surviving to study day) ([2]; Day 13): 12
- Survival (number of animals surviving to study day) ([2]; Day 14): 12
- Survival (number of animals surviving to study day) ([2]; Day 15): 12
- Survival (number of animals surviving to study day) ([2]; Day 16): 12
- Survival (number of animals surviving to study day) ([2]; Day 17): 12
- Survival (number of animals surviving to study day) ([2]; Day 18): 12
- Survival (number of animals surviving to study day) ([2]; Day 19): 12
- Survival (number of animals surviving to study day) ([2]; Day 20): 12
- Survival (number of animals surviving to study day) ([2]; Day 21): 11
- Body weight curves vs respective controls [3]: None of the groups treated with Nintedanib or Test Article had body weight curves that significantly differed
- Interstitial/alveolar inflammatory cell infiltrate score [4]: no effect on interstitial inflammatory cell infiltrate
- Body weight curves vs respective controls [5]: None of the groups treated with Nintedanib, Pirfenidone or Test Article alone or in combination had body weight curves that significantly differed
- Interstitial inflammatory cell infiltrate (as printed in the Ashcroft score paragraph) [6]: no significant effect
- BLM-induced alterations in respiratory parameters ([7]; BLM-induced rats, Day 15 and Day 21, Nintedanib, Pirfenidone or Test Article (HRS^FC1)): did not significantly impact
- Expiratory Time [7, 8]: 0.151 s
- Inspiratory Time [7, 8]: 0.115 s
- Peak Expiratory Flow [7, 8]: 18.4
- Peak Inspiratory Flow [7, 8]: 17.2
- Tidal Volume [7, 8]: 1.19
- Respiratory Rate [7, 8]: 249.0
- Respiratory Minute Volume [7, 8]: 304.5
- Expiratory Time ([7]; Day 15, Ninte. PO + Vehicle IV): 0.205 s
- Inspiratory Time ([7]; Day 15, Ninte. PO + Vehicle IV): 0.122 s
- Peak Expiratory Flow ([7]; Day 15, Ninte. PO + Vehicle IV): 16.5
- Peak Inspiratory Flow ([7]; Day 15, Ninte. PO + Vehicle IV): 19.0
- Tidal Volume ([7]; Day 15, Ninte. PO + Vehicle IV): 1.35
- Respiratory Rate ([7]; Day 15, Ninte. PO + Vehicle IV): 223.4
- Respiratory Minute Volume ([7]; Day 15, Ninte. PO + Vehicle IV): 309.5
- Expiratory Time ([7]; Day 21, Ninte. PO + Vehicle IV): 0.231 s
- Inspiratory Time ([7]; Day 21, Ninte. PO + Vehicle IV): 0.127 s
- Peak Expiratory Flow ([7]; Day 21, Ninte. PO + Vehicle IV): 13.9
- Peak Inspiratory Flow ([7]; Day 21, Ninte. PO + Vehicle IV): 18.1
- Tidal Volume ([7]; Day 21, Ninte. PO + Vehicle IV): 1.44
- Respiratory Rate ([7]; Day 21, Ninte. PO + Vehicle IV): 203.7
- Respiratory Minute Volume ([7]; Day 21, Ninte. PO + Vehicle IV): 286.0
